Assay results as given in US4071627A, “2-Oximino-tetrahydro-1,4-thiazin-5-one compounds and pesticidal carbamate derivatives” (priority 1976, dated 1978).

How the values were obtained:
Type in all cases: in vivo
Parameters in all cases: key: A: excellent control; B: partial control; C: no control
[1] = system: Mexican bean beetle (Epilachna varivestis, Muls.); experiment: Mexican Bean Beetle Leaf Spray Test; settings: 500 ppm, three days, fourth instar larvae
Description: (§1) Suspensions of the test compounds were prepared by dissolving one gram of compound in 50 milliliters of acetone in which had been dissolved 0.1 gram (10 percent of the weight of compound) of an alkylphenoxy polyethoxyethanol surfactant, as an emulsifying or dispersing agent. The resulting solution was mixed into 150 milliliters of water to give roughly 200 milliliters of a suspension containing the compound in finely divided form. The thus-prepared stock suspension contained 0.5 percent by weight of test compound. The test concentrations in parts per million by weight employed in the tests described hereinbelow were obtained by appropriate dilutions of the stock suspension with water. The test procedures were as follows:
Fourth instar larvae of the Mexican bean beetle (Epilachna varivestis, Muls.), reared on Tendergreen bean plants at a temperature of 80°±5° F. and 50±5 percent relative humidity, were the test insects.
The test compounds were formulated by diluting the stock suspension with water to give a suspension containing 500 parts of test compound per million parts of final formation. Potted Tendergreen bean plants of standard height and age were placed on a revolving turntable and sprayed with 100-110 milliliters of test compound formulated by use of a DeVilbiss spray gun set at 10 psig air pressure. This application, which lasted 25 seconds, was sufficient to wet plants to run-off. As a control, 100-110 milliliters of a water-acetone-emulsifier solution containing no test compound were also sprayed on infested plants. When dry, the paired leaves were separated and each was placed in a 9 centimeter Petri dish lined with moistened filter paper. Five randomly selected larvae were introduced into each dish, and the dishes were closed. The closed dishes were labeled and held at a temperature of 80°±5° F. for three days. Although the larvae could easily consume the leaf within 24 to 48 hours, no more food was added. Larvae which were unable to move the length of the body, even upon stimulation, were considered dead.
(§2) In these tests the pesticidal activity of the compounds against aphid, mite, Southern Armyworm, Mexican Bean Beetle, and house fly was rated as follows: […]

[2] = system: two-spotted mite (Tetranychus urticae Koch); experiment: Mite Foliage Spray Test; settings: 500 ppm, six days, adults and nymphs
Description: as §1
Adults and nymphal stages of the two-spotted mite (Tetranychus urticae Koch), reared on Tengergreen bean plants at 80±5 percent relative humidity, were the test organisms. Infested leaves from a stock culture were placed on the primary leaves of two bean plants 6 to 8 inches in height, growing in a 21/2 inch clay pot. 150-200 Mites, a sufficient number for testing, transferred from the excised leaves to the fresh plants in a period of 24 hours. Following the 24 hour transfer period, the excised leaves were removed from the infested plants. The test compounds were formulated by diluting the stock suspension with water to give a suspension containing 500 parts of test compound per million parts of final formulation. The potted plants (one pot per compound) were placed on a revolving turntable and sprayed with 100-110 milliliters of test compound formulation by use of a DeVilbiss spray gun set at 40 psig. air pressure. This application, which lasted 25 seconds, was sufficient to wet the plants to run-off. As a control, 100-110 milliliters of a water solution containing acetone and emulsifier in the same concentrations as the test compound formulation, but containing no test compound, were also sprayed on infested plants. The sprayed plants were held at 80±5 percent relative humidity for six days, after which a mortality count of motile forms was made. Microscopic examination for motile forms was made on the leaves of the test plants. Any individual which was capable of locomotion upon prodding was considering living.
as §2

[3] = system: southern armyworm (Prodenia eridania, (Cram.)); experiment: Southern Armyworm Leaf Spray Test; settings: 500 ppm, three days, larvae
Description: as §1
Larvae of the southern armyworm (Prodenia eridania, (Cram.)), reared on Tendergreen bean plants at a temperature of 80°±5° F. and a relative humidity of 50±5 percent, constituted the test insects.
The test compounds were formulated by diluting the stock suspension with water to give a suspension containing 500 parts of test compound per million parts of final formulation. Potted Tendergreen bean plants of standard height and age were placed on a revolving turntable and sprayed with 100-110 milliliters of test compound formulation by use of a DeVilbiss spray gun set at 10 psig air pressure. This application, which lasted 25 seconds, was sufficient to wet plants to run-off. As a control, 100-110 milliliters of a water-acetone-emulsifier solution containing no test compound were also sprayed on infested plants. When dry, the paired leaves were separated and each one was placed in a 9 centimeter Petri dish lined with moistened filter paper. Five randomly selected larvae were introduced into each dish and the dishes were closed. The closed dishes were labeled and held at 80°-85° F. for three days. Although the larvae cound easily consume the whole leaf within 24 hours, no more food was added. Larvae which were unable to move the length of the body, even upon stimulation by prodding, were considered dead. Percent mortality was […] for various concentration levels.
as §2

[4] = system: bean aphid (Aphis fabae Scop.); experiment: Bean Aphid Foliage Spray Test; settings: 500 ppm, 24 hours, adults and nymphs
Description: as §1
Adults and nymphal stages of the bean aphid (Aphis fabae Scop.) reared on potted dwarf nasturtium plants at 65°-70° F. and 50-70 percent relative humidity, constituted the test insects. For testing purposes, the number of aphids per pot was standardized to 100-150 by trimming plants containing excess aphids.
The test compounds were formulated by diluting the stock suspension with water to give a suspension containing 500 parts of test compound per million parts of final formulation.
The potted plants (one pot per compound tested) infested with 100-150 aphids, were placed on a revolving turntable and sprayed with 100-110 milliliters of test compound formulated by use of a DeVilbiss spray gun set at 40 psig. air pressure. This application, which lasted 25 seconds, was sufficient to wet the plants to run-off. As a control, 100-110 milliliters of a water-acetone-emulsifier solution containing no test compound were also sprayed on infested plants. After spraying, the pots were placed on their sides on a sheet of white standard mimeograph paper which had been previously ruled to facilitate counting. Temperature and humidity in the test room during the 24 hour holding period were 65°-70° F. and 50-70 percent, respectively. Aphids which fell onto the paper and were unable to remain standing after being uprighted were considered dead. Aphids remaining on the plants were observed closely for movement and those which were unable to move the length of the body upon stimulation by prodding were considered dead. Percent mortality was recorded for various concentration levels.
as §2

[5] = system: house flies (Musca domestica, L.); experiment: Fly Bait Test; settings: 500 ppm, 24 hours, adults
Description: as §1
Four to six day old adult house flies (Musca domestica, L.), reared according to the specifications of the Chemical Specialities Manufacturing Association (Blue Book, McNair-Dorland Co., N.Y. 1954; pages 243-244, 261) under controlled conditions of 80°±5° F. and 50±5 percent relative humidity, were the test insects. The flies were immobilized by anesthetizing with carbon dioxide and 25 immobilized individuals, males and females, were transferred to a cage consisting of a standard food strainer about 5 inches in diameter which was inverted over a wrapping-paper-covered surface. The test compounds were formulated by diluting the stock suspension with a 10 percent (by weight) sugar solution to give a suspension containing 500 parts of test compound per million parts of final formulation, by weight. Ten milliliters of the test formulation were added to a souffle cup containing a 1-inch square of an absorbent cotton pad. This bait cup was introduced and centered on the blotting paper under the food strainer prior to admitting the anesthetized flies. The caged flies were allowed to feed on the bait for 24 hours, at a temperature of 80°±5° F. and the relative humidity of 50±5 percent.
as §2

Compound	Biological Activity, Mexican Bean Beetle [1]	Biological Activity, Mite [2]	Biological Activity, Southern Armyworm [3]	Biological Activity, Aphid [4]	Biological Activity, House Fly [5]
CNC(=O)ON=C1SCC(=O)N(CC(C)C)C1C (stereo not shown) [2-[O-(Methylcarbamoyl)oximino]-4-isobutyl-3-methyltetrahydro-1,4-thiazin-5-one]	C	C	C	C	A
CCN1C(=O)CSC(=NOC(=O)NC)C1C (stereo not shown) [2-[O-(Methylcarbamoyl)oximino]-4-ethyl-3-methyltetrahydro-1,4-thiazin-5-one]	B	A	B	B	A
CC(=O)N(C)C(=O)ON=C1SCC(=O)N(C)C1C (stereo not shown) [2-[O-(N-Acetyl-N-methylcarbamoyl)oximino]-3,4-dimethyltetrahydro-1,4-thiazin-5-one]	C	C	A	C	C
CC(C)CN1C(=O)CSC(=NO)C1C (stereo not shown) [2-Oximino-4-isobutyl-3-methyltetrahydro-1,4-thiazin-5-one]	C	C	C	C	C
CCCCN1C(=O)CSC(=NOC(=O)NC)C1C (stereo not shown) [2-[O-(Methylcarbamoyl)oximino]-4-butyl-3-methyltetrahydro-1,4-thiazin-5-one]	B	C	C	C	B
CC1C(=NO)SCC(=O)N1C (stereo not shown) [2-Oximino-3,4-dimethyltetrahydro-1,4-thiazin-5-one]	C	C	C		C
CNC(=O)ON=C1SCC(=O)N(C)C1C (stereo not shown) [2-[O-(methylcarbamoyl)oximino]-3,4-dimethyltetrahydro-1,4-thiazin-5-one]	A	A	C	A	A
CCCCN1C(=O)CSC(=NO)C1C (stereo not shown) [2-Oximino-4-butyl-3-methyltetrahydro-1,4-thiazin-5-one]	C	C	C	C	C
CNC(=O)ON=C1SCC(=O)N(C(C)C)C1C (stereo not shown) [2-[O-(Methylcarbamoyl)oximino]-4-isopropyl-3-methyltetrahydro-1,4-thiazin-5-one]	C	B	C	C	A
CN(C)SN(C)C(=O)ON=C1SCC(=O)NC1(C)C [2-[O-(N-Dimethylaminosulfenyl-N-methylcarbamoyl)oximino]-3,3-dimethyltetrahydro-1,4-thiazin-5-one]	A	A	A	A	A
CNC(=O)ON=C1SCC(=O)NC1(C)C [2-[O-(Methylcarbamoyl)oximino]-3,3-dimethyltetrahydro-1,4-thiazin-5-one]	A	A	A	A	A
CCN1C(=O)CSC(=NO)C1C (stereo not shown) [2-Oximino-4-ethyl-3-methyltetrahydro-1,4-thiazin-5-one]	C	C	C	C	C
CN1C(=O)CSC(=NO)C1(C)C [2-Oximino-3,3,4-trimethyltetrahydro-1,4-thiazin-5-one]	C	C	C	C	C
CN(SN1CCOCC1)C(=O)ON=C1SCC(=O)NC1(C)C [2-[O-(N-Morpholinosulfenyl-N-methylcarbamoyl)oximino]-3,3-dimethyltetrahydro-1,4-thiazin-5-one]	A		A	A	A
CNC(=O)ON=C1SCC(=O)N(C)C1(C)C [2-[O-(Methylcarbamoyl)oximino]-3,3,4-trimethyltetrahydro-1,4-thiazin-5-one]	A	A	B	B	A
